This passage reports Ki results from patent publication US9745328B2, “Flap modulators” (JANSSEN PHARMACEUTICA NV, priority 2013, dated 2017).

Structures can show the parent of a compound that is named as a salt.

By Ki is commonly meant the equilibrium dissociation constant of an inhibitor or competing ligand from its target.

human FLAP, sequence (P20292 whole entry): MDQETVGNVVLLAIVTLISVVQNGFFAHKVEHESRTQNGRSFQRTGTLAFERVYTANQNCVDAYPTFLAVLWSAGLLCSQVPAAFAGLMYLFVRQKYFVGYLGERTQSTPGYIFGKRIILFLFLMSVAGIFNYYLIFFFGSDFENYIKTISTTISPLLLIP

For the first experiment, the target named is human FLAP (Homo sapiens (Human), UniProt P20292). The experiment is described as follows: FLAP binding assay (HTRF format). As to conditions: Table 6 (additional runs), human FLAP wild type. As for the experimental part:
The ability of the compounds of the present invention to treat a FLAP-mediated disease and/or disorder, or associated symptoms or complications thereof, was determined using the following procedures. Binding assay data represent the average value obtained from two different assay plates, with samples run in duplicate on each plate. Human whole blood assay data represent a single replicate on an assay plate using whole blood from at least one healthy donor.
Data are expressed as a HTRF ratio.
In general terms: TR-FRET usually uses a lanthanide donor and a delayed reading to cut background.
Compound `C[C@H](O)CNS(=O)(=O)c1ccccc1-c1ccc(-c2cnc(N)cn2)c(F)c1` [Example 98, (S)-4′-(5-aminopyrazin-2-yl)-3′-fluoro-N-(2-hydroxypropyl)-[1,1′-biphenyl]-2-sulfonamide] gave an inhibition constant (Ki) of 6.1 nM.
The same measure, in the same setting: then `C[C@H](CO)NS(=O)(=O)c1ccccc1-c1ccc(-c2cnc3c(c2)OCCN3)c(F)c1` [Example 390, 4′-(3,4-Dihydro-2H-pyrido[3,2-b][1,4]oxazin-7-yl)-3′-fluoro-N-[(1R)-2-hydroxy-1-methylethyl]biphenyl-2-sulfonamide], with 0.4 nM.
The compound `CCC(C)(C)NS(=O)(=O)c1ccccc1-c1ccc(-c2cnc(N)cn2)c(F)c1` [Example 12, 4′-(5-Aminopyrazin-2-yl)-N-(1,1-dimethylpropyl)-3′-fluorobiphenyl-2-sulfonamide] returned a Ki of 1.9 nM.
Same read-out and setting: as for `Nc1cnc(-c2ccc(-c3ccccc3S(=O)(=O)N[C@@H](CO)c3ccccc3)cc2F)cn1` [Example 82, 4′-(5-Aminopyrazin-2-yl)-3′-fluoro-N-[(1R)-2-hydroxy-1-phenylethyl]biphenyl-2-sulfonamide], the figure is 0.7 nM; as for `CC(C)CNS(=O)(=O)c1ccccc1-c1ccc(-c2cnc(N)cn2)c(F)c1` [Example 7, 4′-(5-Aminopyrazin-2-yl)-3′-fluoro-N-(2-methylpropyl)biphenyl-2-sulfonamide], 0.8 nM.
On the same count and under the same terms, then `C[C@H](O)CNS(=O)(=O)Cc1ccccc1-c1ccc(-c2cnc(N)cn2)c(F)c1` [Example 227, (S)-1-[4′-(5-Aminopyrazin-2-yl)-3′-fluorobiphenyl-2-yl]-N-[(2S)-2-hydroxypropyl]methanesulfonamide hydrochloride], with 670 nM; and `C[C@@H](CO)NS(=O)(=O)c1ccccc1-c1ccc(-c2cnc3c(c2)OCCN3)c(F)c1` [Example 388, 4′-(3,4-Dihydro-2H-pyrido[3,2-b]l[1,4]oxazin-7-yl)-3′-fluoro-N-[(1S)-2-hydroxy-1-methylethyl]biphenyl-2-sulfonamide], with 1.7 nM; and `Nc1cnc(-c2ccc(-c3ccccc3S(=O)(=O)NC3CCCCC3)cc2F)cn1` [Example 6, 4′-(5-Aminopyrazin-2-yl)-N-cyclohexyl-3′-fluorobiphenyl-2-sulfonamide], with 1.1 nM.
Still for that read-out and setting: as for `Nc1cnc(-c2ccc(-c3ccccc3S(=O)(=O)N3CC[C@H](O)C3)cc2F)cn1` [Example 184, (3S)-1-{[4′-(5-Aminopyrazin-2-yl)-3′-fluorobiphenyl-2-yl]sulfonyl}pyrrolidin-3-ol], the figure is 8.9 nM.
`Cc1cccc(-c2ccc(-c3cnc(N)nc3)c(F)c2)c1S(=O)(=O)NC(C)(C)C` [Example 287, 4′-(2-Aminopyrimidin-5-yl)-N-tert-butyl-3′-fluoro-3-methylbiphenyl-2-sulfonamide trifluoroacetic acid salt] showed a Ki of 8.5 nM.
Still for that read-out and setting: then `Nc1cnc(-c2ccc(-c3ccccc3S(=O)(=O)N[C@@H](CO)[C@@H](O)c3ccccc3)cc2F)cn1` [Example 78, 4′-(5-Aminopyrazin-2-yl)-3′-fluoro-N-[(1S,2S)-2-hydroxy-1-(hydroxymethyl)-2-phenylethyl]biphenyl-2-sulfonamide], with 0.7 nM.
The same measure, in the same setting: as for `Nc1cnc(-c2ccc(-c3ccccc3S(=O)(=O)NCCO)cc2F)cn1` [Example 88, 4′-(5-Aminopyrazin-2-yl)-3′-fluoro-N-(2-hydroxyethyl)biphenyl-2-sulfonamide], the figure is 6.2 nM; as for `CC(C)(C)S(=O)(=O)c1ccccc1-c1ccc(-c2cnc(N)cn2)c(F)c1` [Example 194, 5-[2′-(tert-Butylsulfonyl)-3-fluorobiphenyl-4-yl]pyrazin-2-amine], 156 nM; as for `N#CCCNS(=O)(=O)c1ccccc1-c1ccc(-c2cnc(N)cn2)c(F)c1` [Example 169, 4′-(5-Aminopyrazin-2-yl)-N-(2-cyanoethyl)-3′-fluorobiphenyl-2-sulfanamide], 2.9 nM.
On the same count and under the same terms, as for `Nc1cnc(-c2ccc(-c3ccccc3S(=O)(=O)Nc3ccc(C(F)(F)F)nc3)cc2F)cn1` [Example 163, 4′-(5-Aminopyrazin-2-yl)-3′-fluoro-N-[6-(trifluoromethyl)pyridin-3-yl]biphenyl-2-sulfonamide], the figure is 0.5 nM; as for `Nc1cnc(-c2ccc(-c3ccccc3S(=O)(=O)NCCc3ccccc3)cc2F)cn1` [Example 17, 4′-(5-Aminopyrazin-2-yl)-3′-fluoro-N-(2-phenylethyl)biphenyl-2-sulfonamide], 1.7 nM; as for `Nc1ncc(-c2ccc(-c3ccccc3S(=O)(=O)N[C@H]3CCCC[C@@H]3O)cc2F)cn1` (racemic) [Example 260, racemic (trans) 4′-(2-Aminopyrimidin-5-yl)-3′-fluoro-N-[(trans)-2-hydroxycyclohexyl]biphenyl-2-sulfonamide], 8.9 nM.
For the compound `CC(C)(CO)CNS(=O)(=O)c1ccccc1-c1ccc(-c2cnc(N)nc2)c(F)c1` [Example 251, 4′-(2-Aminopyrimidin-5-yl)-3′-fluoro-N-(3-hydroxy-2,2-dimethylpropyl)biphenyl-2-sulfonamide], the affinity corresponds to a Ki of 4.5 nM.
The same measure, in the same setting: as for `Nc1cnc(-c2ccc(-c3ccccc3S(=O)(=O)N3CCC(N)CC3)cc2F)cn1` [Example 65, 5-{2′-[(4-Aminopiperidin-1-yl)sulfonyl]-3-fluorobiphenyl-4-yl}pyrazin-2-amine], the figure is 63.3 nM; as for `Nc1cnc(-c2ccc(-c3ccccc3S(=O)(=O)NCC3CCC3)cc2F)cn1` [Example 9, 4′-(5-Aminopyrazin-2-yl)-N-(cyclobutylmethyl)-3′-fluorobiphenyl-2-sulfonamide], 1.5 nM.

Still in this experiment, the particulars now being: human FLAP wild type, Table 6 (additional runs).
Turning to `Nc1cnc(-c2ccc(-c3ccccc3Oc3ncccn3)cc2F)cn1` [Example 526, 5-[3-Fluoro-2′-(pyrimidin-2-yloxy)biphenyl-4-yl]pyrazin-2-amine], affinity was put at a Ki of 8.3 nM.
In the case of `Nc1ncc(-c2ccc(-c3cccnc3S(=O)(=O)C3CCS(=O)(=O)CC3)cc2F)cn1` [Example 819, 4-((3-(4-(2-aminopyrimidin-5-yl)-3-fluorophenyl)pyridine-2-yl)sulfonyl)tetrahydro-2H-thiopyran 1,1-dioxide], the Ki came to 74.3 nM.
Still for that read-out and setting: then `Nc1ccnc(Oc2cc(C(F)(F)F)ccc2-c2ccc(-c3cnc(N)nc3)c(F)c2)n1` [Example 559, 5-{2′-[(4-Aminopyrimidin-2-yl)oxy]-3-fluoro-4′-(trifluoromethyl)biphenyl-4-yl}pyrimidin-2-amine], with 1.5 nM; and `Cc1cc(N)nc(Oc2ccccc2-c2ccc(-c3cnc(N)cn3)c(F)c2)n1` [Example 616, 2-{[4′-(5-Aminopyrazin-2-yl)-3′-fluorobiphenyl-2-yl]oxy}-6-methylpyrimidin-4-amine], with 16.4 nM; and `Nc1cnc(-c2ccc(-c3ccc(C(F)(F)F)cc3C(=O)N3CCOCC3)cc2F)cn1` [Example 521, 5-[3-Fluoro-2′-(morpholin-4-ylcarbonyl)-4′-(trifluoromethyl)biphenyl-4-yl]pyrazin-2-amine], with 5.4 nM.
Same read-out and setting: then `CC(C)(C)NC(=O)c1ccccc1-c1ccc(-c2cnc(N)cn2)c(F)c1` [Example 501, 4′-(5-Aminopyrazin-2-yl)-N-tert-butyl-3′-fluorobiphenyl-2-carboxamide], with 359 nM; and `Nc1cnc(-c2ccc(-c3ccc(C(F)(F)F)cc3Oc3nccc(N)n3)cc2F)cn1` [Example 556, 2-{[4′-(5-Aminopyrazin-2-yl)-3′-fluoro-4-(trifluoromethyl)biphenyl-2-yl]oxy}pyrimidin-4-amine], with 0.7 nM; and `CC(C)(C)NS(=O)(=O)c1ccccc1-c1ccc(-c2cnc(N)nc2)c(F)c1F` [Example 466, 4′-(2-Aminopyrimidin-5-yl)-N-tert-butyl-2′,3′-difluorobipenyl-2-sulfonamide trifluoroacetic acid salt], with ~254 nM.
Still for that read-out and setting: as for `Nc1cnc(Oc2ccccc2-c2ccc(-c3cnc(N)nc3)c(F)c2)nc1` [Example 615, 5-{2′-[(5-Aminopyrimidin-2-yl)oxy]-3-fluorobiphenyl-4-yl}pyrimidin-2-amine], the figure is 50.9 nM.
In the case of `C[C@H]1CN(C(=O)c2ccccc2-c2ccc(-c3cnc(N)cn3)c(F)c2)CCO1` [Example 776, 5-(3-Fluoro-2′-{[(2S)-2-methylmorpholin-4-yl]carbonyl}biphenyl-4-yl)pyrazin-2-amine], the Ki was found to be 150 nM.
On the same count and under the same terms, then `CC(C)(C)NS(=O)(=O)c1ccccc1-c1ccc(-c2cnc3c(c2)CCN3)c(F)c1` [Example 431, N-tert-Butyl-4′-(2,3-dihydro-1H-pyrrolo[2,3-b]pyridin-5-yl)-3′-fluorobiphenyl-2-sulfonamide], with 0.8 nM.
On the same count and under the same terms, as for `Nc1cnc(-c2ccc(-c3ccccc3F)cc2F)cn1` [Example 468, 5-(2′,3-Difluorobiphenyl-4-yl)pyrazin-2-amine], the figure is 332 nM.
For the compound `Fc1cc(-c2cccnc2OCC2CC2)ccc1-c1cnc2[nH]ccc2n1` [Example 400, 2-{4-[2-(Cyclopropylmethoxy)pyridin-3-yl]-2-fluorophenyl}-5H-pyrrolo[2,3-b]pyrazine], the Ki was 14.1 nM.
For the compound `C[C@H](NS(=O)(=O)c1ccccc1-c1ccc(-c2cnc(N)nc2)nc1)C(F)(F)F` [Example 685, 2-[6-(2-Aminopyrimidin-5-yl)pyridin-3-yl]-N-[(1S)-2,2,2-trifluoro-1-methylethyl]benzenesulfonamide trifluoroacetic acid salt], the affinity corresponds to a Ki of 59.2 nM.
The compound `Nc1cnc(-c2ccc(-c3ccc(C(F)(F)F)cc3F)cc2F)cn1` [Example 471, 5-[2′,3-Difiuoro-4′-(trifluoromethyl)biphenyl-4-yl]pyrazin-2-amine] returned a Ki of 55.8 nM.
Same read-out and setting: as for `Cc1nc(-c2ccc(-c3ccccc3S(N)(=O)=O)cc2F)cnc1N` [Example 446, 4′-(5-Amino-6-methylpyrazin-2-yl)-3′-fluorobiphenyl-2-sulfonamide], the figure is 304 nM; as for `Nc1cnc(-c2ccc(-c3ccc(Br)cc3F)cc2F)cn1` [Example 696, 5-(4′-Bromo-2′,3-difluoroblphenyl-4-yl)pyrazin-2-amine], 141 nM.

Staying with this experiment, now noted: human FLAP wild type, a calculated value of 0.000 indicates Ki less than 1 nM.
`C[C@H](CO)NS(=O)(=O)c1ccccc1-c1ccc(-c2cnc3c(c2)OCCN3)c(F)c1` [Example 390, 4′-(3,4-Dihydro-2H-pyrido[3,2-b][1,4]oxazin-7-yl)-3′-fluoro-N-[(1R)-2-hydroxy-1-methylethyl]biphenyl-2-sulfonamide]: the Ki is < 1 nM.
